Patent publication US8394399B2, “Drug-enhanced adhesion prevention” (Ethicon, Inc., priority 2004, dated 2013)
Several values for one entry are separate records, joined by “and”; a condition that tells them apart may be missing. Equal values may be shown once.

Tests used:
[1] = Necropsy observations in the sidewall adhesion study; assay type: in vivo, rabbit
Description: (§1) The efficacy of Pemirolast in inhibiting adhesion formation was evaluated using a single pump, filled with one of three dosage levels of mg of Pemirolast per ml of delivery vehicle (0.625 mg/ml, 6.25 mg/ml or 62.5 mg/ml), or placebo control (saline). The drug was placed in an Alzet miniosmotic pump and delivered over 7 days at a rate of 10 microliter/hr. The animals were sacrificed after 21 days.
However, there was inflammation observed at the abdominal cavity in 1 of 7 and 3 of 7 rabbits at the medium and high dose of drug, respectively.

[2] = system: adhesion formation at the sidewall injury; assay: Rabbit peritoneal sidewall adhesion model, 1 week dosing via Alzet miniosmotic pump; assay type: in vivo; parameters: key to Adhesion Tenacity: 0: No adhesions; 1: mild, easily dissectible adhesions; 2: moderate adhesions; non-dissectible, does not tear organ; 3: dense adhesions; non-dissectible, tears when removed; conditions: for Adhesion Area Percentage / Adhesion Tenacity: 10 microliter/hr over 7 days, sacrifice after 21 days, individual animals 1-7; for Adhesion Tenacity: score 0-3; for mean adhesion score: group mean of 7 rabbits, placebo control 100±0
Description: In the peritoneal sidewall model, rabbits were pre-anesthetized with 1.2 mg/kg acetylpromazine and anesthetized with a mixture of 55 mg/kg ketamine hydrochloride and 5 mg/kg xylazine intramuscularly. Following preparation for sterile surgery, a midline laparotomy was performed. A 3 cm×5 cm area of peritoneum and transversus abdominis muscle was removed on the right lateral abdominal wall. The cecum was exteriorized and digital pressure was exerted to create subserosal hemorrhages (trauma and loss of blood flow) over all cecal surfaces. The cecum was then returned to its normal anatomic position. Tranilast contained in a delivery vehicle as described below was placed in an Alzet® miniosmotic pump (Alza Corporation, Palo Alto, Calif.) to allow continuous release of the molecule through the postsurgical interval. The Alzet miniosmotic pump was placed in the subcutaneous space and a delivery tube connected the pump with the site of injury at the sidewall. Only the delivery vehicle was placed in the pump of control rabbits. The abdominal wall and skin were closed in a standardized manner.
After 21 days, the rabbits were sacrificed and the percentage of the area of the sidewall injury that was involved in adhesions was determined. In addition, the tenacity of the adhesion formed was scored using a system as follows:
With the sidewall model, an initial score to represent the overall extent of adhesions is given (0 to 3).
The percentage of a surface of the sidewall involved in adhesions to various organs are given in the tables below to quantify the overall adhesion score. A reduction in the area and the tenacity of the adhesions would be considered beneficial and efficacious.
as §1

Structure (SMILES): Cc1cccn2c(=O)c(-c3nnn[nH]3)cnc12 [Pemirolast, 9-methyl-3-(1H-tetrazol-5-yl)-4H-pyrido [1,2-α]pyrimidin-4-one potassium]
- clinical signs associated with administration ([1]; at necropsy, all doses): no clinical signs
- inflammation observed at the abdominal cavity (rabbits affected) ([1]; high dose (62.5 mg/ml)): 3 of 7
- inflammation observed at the abdominal cavity (rabbits affected) ([1]; medium dose (6.25 mg/ml)): 1 of 7
- Adhesion Area Percentage ([2]; 0.625 mg/ml in pump): 80% (2×) and 100% (4×) and 70%
- Adhesion Tenacity ([2]; 0.625 mg/ml in pump): 1 (5×) and 2 (2×)
- mean adhesion score ([2]; 0.625 mg/ml): 90.0±4.9
- Adhesion Area Percentage ([2]; 6.25 mg/ml in pump): 50% and 80% (2×) and 100% (2×) and 70% and 60%
- Adhesion Tenacity ([2]; 6.25 mg/ml in pump): 1 (6×) and 2
- mean adhesion score ([2]; 6.25 mg/ml, p=0.007): 77.1±7.1
- Adhesion Area Percentage ([2]; 62.5 mg/ml in pump): 70% (2×) and 50% (2×) and 80% (2×) and 100%
- Adhesion Tenacity ([2]; 62.5 mg/ml in pump): 2 (3×) and 1 (4×)
- mean adhesion score ([2]; 62.5 mg/ml, p=0.001): 71.4±6.7
- tenacity of the adhesions formed, relative to control ([2]; all dose groups, analysis of variance on the ranks): significant reductions
- area of adhesion formation, relative to control ([2]; sidewall model, reductions in the groups that received the higher doses): reduced the area of adhesion formation
